HELM strings list units from the 5' end as sugar, base in round brackets, then linkage (d deoxyribose, r ribose, m 2'-O-methyl, p phosphodiester). Strings are as the collection lists them; they lack the last nucleoside at the 3' end of the tested compound. [moe] = 2'-O-(2-methoxyethyl) (MOE); [sp] = phosphorothioate linkage; [m5C] = 5-methylcytosine

This note sets out measurements from the OligoGym collection.

In this data set the target is GFAP. Put plainly: mouse, dose not given. The settings on record: ASO.
Turning to “RNA1{[moe](T)[sp].[moe](T)p.[moe](G)p.[moe](G)p.d(T)[sp].d(G)[sp].d([m5C])[sp].d(T)[sp].d(T)[sp].d(T)[sp].d(T)[sp].d(G)[sp].d([m5C])[sp].d([m5C])[sp].[moe]([m5C])p.[moe]([m5C])p.[moe]([m5C])p.[moe](T)[sp].[moe](G)}$$$$ (last 3' nucleoside missing)”, the 3 h FOB score is 1 score 0-7. With “RNA1{[moe](T)[sp].[moe](T)p.[moe](G)p.[moe](G)p.d([m5C])[sp].d(A)[sp].d(G)[sp].d(T)[sp].d(A)[sp].d(T)[sp].d(T)[sp].d(A)[sp].d([m5C])[sp].d([m5C])[sp].[moe](T)p.[moe]([m5C])p.[moe](T)p.[moe](A)[sp].[moe]([m5C])}$$$$ (last 3' nucleoside missing)”, the 3 h FOB score stood at 1 score 0-7. The result for “RNA1{[moe](T)[sp].[moe](T)p.[moe](G)p.[moe](T)p.[moe](G)[sp].d(A)[sp].d(T)[sp].d(T)[sp].d(T)[sp].d(T)[sp].d([m5C])[sp].d([m5C])[sp].d([m5C])[sp].[moe]([m5C])p.[moe](G)p.[moe](T)[sp].[moe]([m5C])}$$$$ (last 3' nucleoside missing)” reads 2 score 0-7; that for “RNA1{[moe](T)[sp].[moe](T)p.[moe](G)p.[moe](T)p.[moe](G)p.[moe](A)p.d(T)[sp].d(T)[sp].d(T)[sp].d(T)[sp].d([m5C])[sp].d([m5C])[sp].d([m5C])[sp].d([m5C])[sp].d(G)[sp].d(T)[sp].[moe]([m5C])p.[moe](T)[sp].[moe](T)}$$$$ (last 3' nucleoside missing)”, 4 score 0-7. On to “RNA1{[moe](T)[sp].[moe](T)p.[moe](G)p.[moe](T)p.[moe]([m5C])[sp].d(T)[sp].d(T)[sp].d(T)[sp].d(A)[sp].d(T)[sp].d(T)[sp].d(T)[sp].d(T)[sp].[moe](T)p.[moe]([m5C])p.[moe]([m5C])[sp].[moe](T)}$$$$ (last 3' nucleoside missing)”, for which the 3 h FOB score amounted to 0 score 0-7.

In turn, “RNA1{[moe](T)[sp].[moe](T)p.[moe](G)p.[moe](T)p.[moe]([m5C])[sp].d(T)[sp].d(T)[sp].d(T)[sp].d(A)[sp].d(T)[sp].d(T)[sp].d(T)[sp].d(T)[sp].d(T)[sp].d([m5C])[sp].[moe]([m5C])p.[moe](T)p.[moe]([m5C])[sp].[moe](A)}$$$$ (last 3' nucleoside missing)” returned a 3 h FOB score of 1 score 0-7.

For the substance “RNA1{[moe](T)[sp].[moe](T)p.[moe](G)p.[moe](T)p.[moe]([m5C])p.[moe](T)p.d(T)[sp].d(T)[sp].d(A)[sp].d(T)[sp].d(T)[sp].d(T)[sp].d(T)[sp].d(T)[sp].d([m5C])[sp].d([m5C])[sp].[moe](T)p.[moe]([m5C])[sp].[moe](A)}$$$$ (last 3' nucleoside missing)”, the 3 h FOB score turned out to be 4 score 0-7. “RNA1{[moe](T)[sp].[moe](T)p.[moe](G)p.[moe](T)p.d(G)[sp].d(A)[sp].d(T)[sp].d(T)[sp].d(T)[sp].d(T)[sp].d([m5C])[sp].d([m5C])[sp].d([m5C])[sp].d([m5C])[sp].[moe](G)p.[moe](T)p.[moe]([m5C])p.[moe](T)[sp].[moe](T)}$$$$ (last 3' nucleoside missing)” gave a 3 h FOB score of 0 score 0-7.

Substance “RNA1{[moe](T)[sp].[moe](T)p.[moe](G)p.[moe](T)p.d([m5C])[sp].d(T)[sp].d(T)[sp].d(T)[sp].d(A)[sp].d(T)[sp].d(T)[sp].d(T)[sp].d(T)[sp].d(T)[sp].[moe]([m5C])p.[moe]([m5C])p.[moe](T)p.[moe]([m5C])[sp].[moe](A)}$$$$ (last 3' nucleoside missing)” yielded a 3 h FOB score of 2 score 0-7. In the case of “RNA1{[moe](T)[sp].[moe](T)p.[moe](T)p.[moe](A)p.[moe](T)[sp].d(T)[sp].d(T)[sp].d(T)[sp].d(T)[sp].d([m5C])[sp].d([m5C])[sp].d(T)[sp].d([m5C])[sp].[moe](A)p.[moe](G)p.[moe]([m5C])[sp].[moe](G)}$$$$ (last 3' nucleoside missing)”, the 3 h FOB score was 1 score 0-7. “RNA1{[moe](T)[sp].[moe](T)p.[moe](T)p.[moe](A)p.[moe](T)[sp].d(T)[sp].d(T)[sp].d(T)[sp].d(T)[sp].d([m5C])[sp].d([m5C])[sp].d(T)[sp].d([m5C])[sp].d(A)[sp].d(G)[sp].[moe]([m5C])p.[moe](G)p.[moe](A)[sp].[moe]([m5C])}$$$$ (last 3' nucleoside missing)” had a 3 h FOB score of 2 score 0-7. Regarding “RNA1{[moe](T)[sp].[moe](T)p.[moe](T)p.[moe](A)p.[moe](T)p.[moe]([m5C])p.d(T)[sp].d(G)[sp].d(T)[sp].d(G)[sp].d([m5C])[sp].d(T)[sp].d(T)[sp].d(T)[sp].d(A)[sp].d(G)[sp].[moe](T)p.[moe](G)[sp].[moe](A)}$$$$ (last 3' nucleoside missing)”, the 3 h FOB score amounted to 3 score 0-7. In turn, “RNA1{[moe](T)[sp].[moe](T)p.[moe](T)p.[moe](A)p.d(T)[sp].d(T)[sp].d(T)[sp].d(T)[sp].d(T)[sp].d([m5C])[sp].d([m5C])[sp].d(T)[sp].d([m5C])[sp].d(A)[sp].[moe](G)p.[moe]([m5C])p.[moe](G)p.[moe](A)[sp].[moe]([m5C])}$$$$ (last 3' nucleoside missing)” had a 3 h FOB score of 0 score 0-7. With “RNA1{[moe](T)[sp].[moe](T)p.[moe](T)p.[moe](G)p.[moe](A)[sp].d(G)[sp].d(A)[sp].d(T)[sp].d(A)[sp].d(T)[sp].d([m5C])[sp].d(T)[sp].d(T)[sp].[moe](G)p.[moe](T)p.[moe](G)[sp].[moe](A)}$$$$ (last 3' nucleoside missing)”, the 3 h FOB score stood at 3 score 0-7. The result for “RNA1{[moe](T)[sp].[moe](T)p.[moe](T)p.[moe](G)p.[moe](A)p.d(G)[sp].d(A)[sp].d(T)[sp].d(A)[sp].d(T)[sp].d([m5C])[sp].d(T)[sp].d(T)[sp].d(G)[sp].d(T)[sp].[moe](G)p.[moe](A)p.[moe]([m5C])[sp].[moe]([m5C])}$$$$ (last 3' nucleoside missing)” reads 3 score 0-7; that for “RNA1{[moe](T)[sp].[moe](T)p.[moe](T)p.[moe](G)p.[moe](G)p.[moe]([m5C])p.d(A)[sp].d(G)[sp].d(T)[sp].d(A)[sp].d(T)[sp].d(T)[sp].d(A)[sp].d([m5C])[sp].d([m5C])[sp].d(T)[sp].[moe]([m5C])p.[moe](T)[sp].[moe](A)}$$$$ (last 3' nucleoside missing)”, 0 score 0-7. The result for “RNA1{[moe](T)[sp].[moe](T)p.[moe](T)p.[moe](G)p.[moe](G)p.d(T)[sp].d(G)[sp].d([m5C])[sp].d(T)[sp].d(T)[sp].d(T)[sp].d(T)[sp].d(G)[sp].d([m5C])[sp].d([m5C])[sp].[moe]([m5C])p.[moe]([m5C])p.[moe]([m5C])[sp].[moe](T)}$$$$ (last 3' nucleoside missing)” reads 2 score 0-7. Then “RNA1{[moe](T)[sp].[moe](T)p.[moe](T)p.[moe](G)p.[moe](G)p.d([m5C])[sp].d(A)[sp].d(G)[sp].d(T)[sp].d(A)[sp].d(T)[sp].d(T)[sp].d(A)[sp].d([m5C])[sp].d([m5C])[sp].[moe](T)p.[moe]([m5C])p.[moe](T)[sp].[moe](A)}$$$$ (last 3' nucleoside missing)”, with 1 score 0-7. In turn, “RNA1{[moe](T)[sp].[moe](T)p.[moe](T)p.[moe](G)p.[moe](T)[sp].d([m5C])[sp].d(T)[sp].d(T)[sp].d(T)[sp].d(A)[sp].d(T)[sp].d(T)[sp].d(T)[sp].[moe](T)p.[moe](T)p.[moe]([m5C])[sp].[moe]([m5C])}$$$$ (last 3' nucleoside missing)” displayed a 3 h FOB score of 0 score 0-7. “RNA1{[moe](T)[sp].[moe](T)p.[moe](T)p.[moe](G)p.[moe](T)[sp].d([m5C])[sp].d(T)[sp].d(T)[sp].d(T)[sp].d(A)[sp].d(T)[sp].d(T)[sp].d(T)[sp].d(T)[sp].d(T)[sp].[moe]([m5C])p.[moe]([m5C])p.[moe](T)[sp].[moe]([m5C])}$$$$ (last 3' nucleoside missing)” showed a 3 h FOB score of 0 score 0-7. Regarding “RNA1{[moe](T)[sp].[moe](T)p.[moe](T)p.[moe](G)p.[moe](T)p.[moe]([m5C])p.d(T)[sp].d(T)[sp].d(T)[sp].d(A)[sp].d(T)[sp].d(T)[sp].d(T)[sp].d(T)[sp].d(T)[sp].d([m5C])[sp].[moe]([m5C])p.[moe](T)[sp].[moe]([m5C])}$$$$ (last 3' nucleoside missing)”, the 3 h FOB score worked out at 0 score 0-7. For the substance “RNA1{[moe](T)[sp].[moe](T)p.[moe](T)p.[moe](G)p.d(G)[sp].d([m5C])[sp].d(A)[sp].d(G)[sp].d(T)[sp].d(A)[sp].d(T)[sp].d(T)[sp].d(A)[sp].d([m5C])[sp].[moe]([m5C])p.[moe](T)p.[moe]([m5C])p.[moe](T)[sp].[moe](A)}$$$$ (last 3' nucleoside missing)”, the 3 h FOB score turned out to be 1 score 0-7. The result for “RNA1{[moe](T)[sp].[moe](T)p.[moe](T)p.[moe](G)p.d(T)[sp].d([m5C])[sp].d(T)[sp].d(T)[sp].d(T)[sp].d(A)[sp].d(T)[sp].d(T)[sp].d(T)[sp].d(T)[sp].[moe](T)p.[moe]([m5C])p.[moe]([m5C])p.[moe](T)[sp].[moe]([m5C])}$$$$ (last 3' nucleoside missing)” reads 1 score 0-7; that for “RNA1{[moe](T)[sp].[moe](T)p.[moe](T)p.[moe](T)p.[moe](G)[sp].d(T)[sp].d(G)[sp].d(T)[sp].d(G)[sp].d(T)[sp].d(G)[sp].d(A)[sp].d(G)[sp].d(T)[sp].d(A)[sp].[moe](A)p.[moe](G)p.[moe](A)[sp].[moe](A)}$$$$ (last 3' nucleoside missing)”, 7 score 0-7; that for “RNA1{[moe](T)[sp].[moe](T)p.[moe](T)p.[moe](T)p.d(G)[sp].d(A)[sp].d(G)[sp].d(A)[sp].d(T)[sp].d(A)[sp].d(T)[sp].d([m5C])[sp].d(T)[sp].d(T)[sp].[moe](G)p.[moe](T)p.[moe](G)p.[moe](A)[sp].[moe]([m5C])}$$$$ (last 3' nucleoside missing)”, 3 score 0-7. For “RNA1{[moe](T)[sp].[moe](T)p.[moe](T)p.[moe]([m5C])p.[moe](T)[sp].d([m5C])[sp].d(T)[sp].d([m5C])[sp].d([m5C])[sp].d(T)[sp].d(G)[sp].d(T)[sp].d(T)[sp].d(T)[sp].d([m5C])[sp].[moe](A)p.[moe](G)p.[moe]([m5C])[sp].[moe](A)}$$$$ (last 3' nucleoside missing)”, the 3 h FOB score was determined as 3 score 0-7.
